Assays:
[1] = test system: GL0608 gall bladder cancer PDX xenograft model; test: TH-302 efficacy in GL0608 gall bladder cancer PDX xenograft model; assay type: in vivo, mice
Source text: (§1) A series of tumor xenograft experiments was initiated. In these gall bladder and NSCLC tumor experiments, patient-derived tumor xenograft (PDX) models were selected since these models more accurately mimic the histology and genetics of actual human tumors as compared with the cell line derived models. More specifically, the original tumor sources for these human tumor xenograft models were patient-derived (PDX) gall bladder and lung carcinomas that have been maintained subcutaneously in nude mice for >3 passages. When grown to 500-700 mm^3, the tumors were harvested for inoculation by selecting and slicing (into 3×3×3 mm^3 fragments) well grown portions of tumors. These tumor fragments were implanted subcutaneously in the right flank of athymic nu/nu mice (female, 6-8 weeks old (18-20 g)) for the efficacy experiments. All of the procedures for tumor harvesting, inoculation, animal dosing, and tumor and body weight measurement were conducted in a sterile hoods.
(§2) For the efficacy studies, when the average tumor size reached 100-200 mm^3, mice were randomly grouped into vehicle and TH-302 treatment groups. Each group contained 8-10 mice. Since the tumor volume could affect the effectiveness of any given treatment, a randomized block design was used in the group assignment based upon their tumor volumes. […] After randomization, mice were treated with either vehicle or TH-302 i.p. 60 mg/kg twice per week (Q2W) for approximately 5-8 weeks based on tumor grow rate and response. The precise dosing periods are described in the legends of FIGS. 1 and 2 above. Tumor volumes were measured twice weekly.
(§3) %ΔT/ΔC was calculated with the formula below: %ΔT/ΔC=((TVf−TVi)/(TVfCtrl−TViCtrl))×100% where TV=tumor volume, f=final, I=initial, and Ctrl=control group.
(§4) If tumor regression was observed: %ΔT/ΔC=(TVf−TVi)/TVi)×100%=% Regression=(1−(TVf/TVi))×100% where TV=tumor volume, f=final, I=initial, and Ctrl=control group. […]

[2] = test system: GL1208 gall bladder cancer PDX xenograft model; test: TH-302 efficacy in GL1208 gall bladder cancer PDX xenograft model; assay type: in vivo, mice
Source text: as §1
(§5) For the efficacy studies, when the average tumor size reached 100-200 mm^3, mice were randomly grouped into vehicle and TH-302 treatment groups. Each group contained 8-10 mice. […] Tumor volumes were measured twice weekly.
(§6) %ΔT/ΔC was calculated with the formula below: %ΔT/ΔC=((TVf−TVi)/(TVfCtrl−TViCtrl))×100% where TV=tumor volume, f=final, I=initial, and Ctrl=control group. […]

[3] = test system: LU1245 NSCLC PDX xenograft model; test: TH-302 efficacy in LU1245 NSCLC PDX xenograft model; assay type: in vivo, mice
Source text: as §1, §2, §3, §4

[4] = test system: LU1304 NSCLC PDX xenograft model; test: TH-302 efficacy in LU1304 NSCLC PDX xenograft model; assay type: in vivo, mice
Source text: as §1, §5, §6

[5] = test system: LU2505 NSCLC PDX xenograft model; test: TH-302 efficacy in LU2505 NSCLC PDX xenograft model; assay type: in vivo, mice
Source text: as §1, §5, §6

[6] = test system: LU1380 NSCLC PDX xenograft model; test: TH-302 efficacy in LU1380 NSCLC PDX xenograft model; assay type: in vivo, mice
Source text: as §1, §5, §6

[7] = test system: LU0357 NSCLC PDX xenograft model; test: TH-302 efficacy in LU0357 NSCLC PDX xenograft model; assay type: in vivo, mice
Source text: as §1, §5, §6

[8] = test system: LU1235 NSCLC PDX xenograft model; test: TH-302 efficacy in LU1235 NSCLC PDX xenograft model; assay type: in vivo, mice
Source text: as §1, §5, §6

[9] = test system: LU0387 NSCLC PDX xenograft model; test: TH-302 efficacy in LU0387 NSCLC PDX xenograft model; assay type: in vivo, mice
Source text: as §1, §5, §6

[10] = Body weights of mice treated with TH-302 in PDX xenograft studies; assay type: in vivo; details: 60 mg/kg i.p. Q2W, data not shown
Source text: as §1
For the efficacy studies, when the average tumor size reached 100-200 mm^3, mice were randomly grouped into vehicle and TH-302 treatment groups. Each group contained 8-10 mice. Since the tumor volume could affect the effectiveness of any given treatment, a randomized block design was used in the group assignment based upon their tumor volumes. […] Tumor volumes were measured twice weekly.

[11] = test system: panel of 11 cancer cell-line derived models; details: previous tumor xenograft studies; cited from earlier work

## Cn1c(COP(=O)(NCCBr)NCCBr)cnc1[N+](=O)[O-] [TH-302, (2-bromoethyl)({[(2-bromoethyl)amino][(2-nitro-3-methylimidazol-4-yl)methoxy]phosphoryl})amine]
[1]; GL0608, gall bladder, adenocarcinoma, TH-302 60 mg/kg i.p. twice per week (Q2W), 59 days
  %ΔT/ΔC (TH-302): −100%
[1]; GL0608, 60 mg/kg i.p. Q2W for 59 days, at day 99, final tumor measurement
  mice with a complete response (lack of tumor re-growth following regression): 10/10
[1]; GL0608, 60 mg/kg i.p. Q2W, treatment period 59 days
  antitumor activity (tumor growth measurements), in words: highly sensitive
[2]; GL1208, gall bladder, adenosquamous, TH-302 60 mg/kg i.p. twice per week (Q2W), 49 days
  %ΔT/ΔC (TH-302): 62%
[2]; GL1208, 60 mg/kg i.p. Q2W, after 49 days treatment
  antitumor activity (tumor growth measurements), in words: minor tumor growth inhibition
[3]; LU1245, NSCLC EGFR wt, TH-302 60 mg/kg i.p. twice per week (Q2W), 49 days
  %ΔT/ΔC (TH-302): −42%
[3]; LU1245, 60 mg/kg i.p. Q2W, 49 day dosing period
  antitumor activity (tumor growth measurements), in words: highly sensitive
[3]; LU1245, 60 mg/kg i.p. Q2W, 49 day dosing, at day 73 (14 days post treatment termination)
  mice with a complete response (lack of tumor re-growth following regression): 5/10
[4]; LU1304, NSCLC EGFR wt, TH-302 60 mg/kg i.p. twice per week (Q2W), approximately 5-8 weeks
  %ΔT/ΔC (TH-302): 93%
[4]; LU1304, similar to LU1380
  antitumor activity, in words: minor level of efficacy
[5]; LU2505, NSCLC EGFR wt, TH-302 60 mg/kg i.p. twice per week (Q2W), approximately 5-8 weeks
  %ΔT/ΔC (TH-302): 34%
[5]; LU2505, similar to LU1380
  antitumor activity, in words: minor level of efficacy
[6]; LU1380, NSCLC EGFR wt, TH-302 60 mg/kg i.p. twice per week (Q2W), 42 days
  %ΔT/ΔC (TH-302): 86%
[6]; LU1380, 60 mg/kg i.p. Q2W, after 42 days treatment
  antitumor activity (tumor growth measurements), in words: minor tumor growth inhibition
[7]; LU0357, NSCLC EGFR mt, TH-302 60 mg/kg i.p. twice per week (Q2W), approximately 5-8 weeks
  %ΔT/ΔC (TH-302): 93%
[7]; LU0357, similar to LU1380
  antitumor activity, in words: minor level of efficacy
[8]; LU1235, NSCLC EGFR mt, TH-302 60 mg/kg i.p. twice per week (Q2W), approximately 5-8 weeks
  %ΔT/ΔC (TH-302): 74%
[8]; LU1235, similar to LU1380
  antitumor activity, in words: minor level of efficacy
[9]; LU0387, NSCLC EGFR mt, TH-302 60 mg/kg i.p. twice per week (Q2W), approximately 5-8 weeks
  %ΔT/ΔC (TH-302): 84%
[9]; LU0387, similar to LU1380
  antitumor activity, in words: minor level of efficacy
[10]; NSCLC PDX studies (LU1245, LU1380)
  changes in the body weights of the mice treated with TH-302: No significant changes
[10]; gall bladder PDX studies (GL0608, GL1208)
  changes in the body weights of the mice treated with TH-302: No significant changes
[11]
  monotherapy efficacy (tumor growth delays): modest

From patent US10071109B2, “Predictive biomarker for hypoxia-activated prodrug therapy” (Molecular Templates, Inc., priority 2013, dated 2018)
